Several values for one entry are separate records, joined by “and”; a condition that tells them apart may be missing. Equal values may be shown once. Where a name gives a salt, the structure may show the parent alone.

The target of the experiment is 5-hydroxytryptamine receptor 4 (Mus musculus, UniProt P97288).
Sequence of 5-hydroxytryptamine receptor 4 (P97288 whole entry): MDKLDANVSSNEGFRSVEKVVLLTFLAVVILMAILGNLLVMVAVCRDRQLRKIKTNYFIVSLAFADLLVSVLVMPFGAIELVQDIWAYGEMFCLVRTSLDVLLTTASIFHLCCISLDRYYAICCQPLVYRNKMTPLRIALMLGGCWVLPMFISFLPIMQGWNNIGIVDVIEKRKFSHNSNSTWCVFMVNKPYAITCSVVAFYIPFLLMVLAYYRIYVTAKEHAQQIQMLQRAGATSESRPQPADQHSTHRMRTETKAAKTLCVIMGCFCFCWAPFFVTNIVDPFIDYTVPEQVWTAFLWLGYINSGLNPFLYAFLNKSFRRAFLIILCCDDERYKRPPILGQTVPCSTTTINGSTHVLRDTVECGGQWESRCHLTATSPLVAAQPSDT
By Ki is commonly meant a dissociation constant, usually derived from enzyme kinetics or from competition with a known ligand. A low value points to higher affinity. For `CN1C2CCC1CC(OC(=O)c1c[nH]c3ccccc13)C2` (stereo not given), the Ki amounted to 87.1 nM.

`COc1cc(N)c(Cl)cc1C(=O)NC1CCN(CCCC(=O)N2CCC(N(C)C)CC2)CC1OC` (stereo not given) [4-Amino-5-chloro-N-(1-{4-[4-(dimethylamino)-1-piperidinyl]-4-oxobutyl}-3-methoxy-4-piperidinyl)-2-methoxybenzamide] came in with a Ki of 2.88 nM. Compared with the last molecule, the Ki is about 30-fold lower.

Take `COc1cc(N)c(Cl)cc1C(=O)NC1CCN(CCCOc2ccc(F)cc2)CC1OC` (stereo not given) [4-amino-5-chloro-N-(1-(3-(4-fluorophenoxy)propyl)-3-methoxypiperidin-4-yl)-2-methoxybenzamide]: affinity was put at a Ki of 32.4 nM.

`CCN(CC)CCNC(=O)c1cc(Cl)c(N)cc1OC` [4-amino-5-chloro-N-[2-(diethylamino)ethyl]-2-methoxy-benzamide;hydrochloride] displayed a Ki of 891 nM.

The molecule `CCn1c(=O)n(C(=O)NC2CC3CCC(C2)N3C)c2ccccc21` (stereo not given) [BIMU 1] displayed an inhibition constant Ki of 28.8 nM.

In turn, `CC(C)n1c(=O)n(C(=O)NC2C[C@H]3CC[C@@H](C2)N3C)c2ccccc21` (stereo not given in full) [BIMU 8] returned an inhibition constant Ki of 40.7 nM.

Turning to `COc1ccc2[nH]c(=O)n(C(=O)OC3CC4CCC(C3)N4C)c2c1` (stereo not given) [DAU 6285], the affinity, expressed as Ki, was 55 nM. The Ki values of the last two molecules are within 1.5-fold of each other.

Molecule `Cn1cc(C(=O)OCC2CCN(CCNS(C)(=O)=O)CC2)c2ccccc21` [GR 113808] showed a Ki of 0.2 nM.

The molecule `COc1[nH]c2ccc(F)cc2c1C(=O)OCC1CCN(CCNS(C)(=O)=O)CC1` [GR-125487] registered an inhibitory constant (Ki) of 0.02 nM.

On to `COc1cc(N)c(Cl)cc1C(=O)NC1CCN2CCCC1C2` (stereo not given) [NSC_3035240], for which the inhibition constant (Ki) stood at 132 nM.

`CCN(CC)CCOC(=O)c1cc(Cl)c(N)cc1OC` [SDZ-205557] displayed a Ki of 7.76 nM.

In the case of `COc1cc(N)c(Cl)cc1C(=O)NC1CN2CCC1CC2` (stereo not given) [ZACOPRIDE,R], the Ki was found to be 191 nM.

For `NCCc1c[nH]c2ccc(O)cc12` [[3H]-5-HT], the inhibitory constant (Ki) was 56.2 nM. This Ki is about 3.4-fold lower than that of the molecule before.

As for `NCCc1c[nH]c2ccc(C(N)=O)cc12` [[3H]-5-carboxamidotryptamine], the inhibitory constant (Ki) was > 10000 nM and 9770 nM.

In turn, `COc1ccc2[nH]cc(CCN)c2c1` [tryptamine, 5-Methoxy] registered a Ki of 229 nM.

These data come from BindingDB's records for doi:10.1016/s0014-5793(96)01132-5 (Cnrs Upr 9023, 1996).
